Here are results for 4 sequences from US20090118173A1, “TREATMENT AND PREVENTION OF INFLAMMATORY BOWEL DISEASES” (priority 2006, published 2009).

Assay [1] deals with human MHC class II molecules. The conditions noted are these: human B cell line under stress (nutrient deprivation); peptide of the same sequence; cited from earlier work.
Assay [2] has as its system primed spleen and draining lymph node cells. Nature of the assay: T-cell proliferation (tritium incorporation) of peptide-pool primed spleen and draining lymph node cells re-stimulated in vitro with individual peptides. It counts as cell-based, Balb/c mice. The conditions noted are these: mice immunized with peptide pools, in vitro re-stimulation with the individual peptide. The text has this: (§1) To define the epitopes more precisely, we divided the 13 peptides, based on the degree of sequence identity between bacterial and the homologous mouse Hsp70s, in three pools (pool A: non-conserved peptides, pool B: conserved peptides comprising at least about 80% amino acid identity to the mouse homologue, and pool C: highly conserved peptides comprising >86% amino acid identity to the mouse homologue, see below) and immunized 10-12 weeks old Balb/c mice twice with a 2 week interval (intraperitoneally and subcutaneously) with the peptide pools. 10 days after the second immunization primed spleen and draining lymph node cells were re-stimulated in vitro with all the 13 individual peptides after which we measured T-cell proliferation (tritium incorporation), IFNγ, IL10, IL4 and IL5 production (cytokine production).

For assay [3], the system named is bacterially primed T-cells. Put plainly: Cross reactivity of bacterial peptide primed T cells with corresponding mouse homologue peptides. It counts as cell-based, Balb/c mice. The following applies: proliferation and cytokine production.
From the text: To test cross-reactivity, i.e. the capacity of selected peptides to induce T cells cross-reactive with homologous self-proteins, the following method can be used (see also Examples):
Any sign of activation (see above) can be taken as an indication of cross-reactivity of the test (e.g. microbial) epitope with the self protein/peptide. Initial testing can be carried out with a synthetic peptide based on the sequence of the self protein/peptide, but final proof for cross-reactivity with the protein/peptide itself, either in isolated form or expressed on cells, is preferably obtained in T cell activation tests with (stressed) antigen presenting cells (over)expressing and presenting the self HSP-peptide, in order to exclude cryptic epitopes.
as §1

In assay [4] the test system is primed spleen and draining lymph node cells. Nature of the assay: Cytokine production (IFNγ, IL10, IL4, IL5) of peptide-pool primed spleen and draining lymph node cells re-stimulated in vitro. It counts as cell-based, Balb/c mice. The following applies: mice immunized with peptide pools; in vitro re-stimulation with the individual peptide.
From the text: as §1

Consider “VLRIINEPTAAAIAY (listed as Mus musculus) [mC1b]”, for which the “elution from human MHC class II molecules” value in assay [1] is given as “eluted from human MHC class II molecules”.

For “VLRIVNEPTAAALAY (listed as Mycobacterium tuberculosis) [Peptide C1]”, the T-cell proliferation response result in assay [2] is “increased”. Moreover, the “Cross-reactivity of bacterially primed T-cells with mouse homologue peptide” value (“Cross-reactivity … with mouse homologue peptide” below) in assay [3] is “induced cross reactive T cell responses and yes”. In assay [4], the IFN-gamma entry was “increased” and the IL-10 entry was “augmented”.

Turning to “KPFQSVIADTGISVS (listed as Mycobacterium tuberculosis) [Peptide A1, mycobacterial hsp70 peptide, pool A (not conserved)]”, the T-cell proliferation response entry in assay [2] was “increased”. Further, in assay [3], the “Cross-reactivity … with mouse homologue peptide” value is reported as “no”. Besides, in assay [4], the IFN-gamma entry was “increased” and the IL-10 result was “augmented”.

For the sequence “DEVVAVGAALQAGVL (listed as Mycobacterium tuberculosis) [Peptide B1, mycobacterial hsp70 peptide, pool B (conserved)]”, in assay [2], the T-cell proliferation response result is listed as “increased”. Moreover, the “Cross-reactivity … with mouse homologue peptide” value in assay [3] is “induced cross reactive T cell responses and Yes”. Further, in assay [4], the IFN-gamma result is “increased” and the IL-10 entry was “No”.
